Experimental data as given in PMC11249953, “c-KIT inhibitors reduce pathology and improve behavior in the Tg(SwDI) model of Alzheimer’s disease” (Life Science Alliance, 2024).
“And” between values parts separate entries of the source, which are not always exact repeats. Equal values may be shown once.

Key:
pTau = assay: ELISA for pTau (S396) in brain lysates; assay type: in vivo, mouse; settings: Tg4510 mice; vs DMSO
Procedure: All samples were analyzed in parallel using the same reagents. A total of 25 μl soluble protein was incubated overnight at 4°C with 25 μl of a mixed bead solution. After washing, samples were incubated with 25 μl detection antibody solution for 1.5 h at RT. Streptavidin–phycoerythrin (25 μl) was added to each well containing the 25 μl of detection antibody solution. Samples were then washed and suspended in 100 μl of sheath fluid. Samples were then run on MAGPIX with Xponent software. The median fluorescent intensity data were analyzed using a five-parameter logistic or spline curve-fitting method for calculating analyte concentrations in samples. Specific pTau ser396 (KHB7031; Invitrogen), aggregated Aβ (KHB3491; Thermo Fisher Scientific), and Aβ42 (KHB3442; Invitrogen) were performed according to manufacturer’s protocol on tissue soluble extracts from brain lysates in 1XSTEN buffer.

DDR1 = target: T1, DDR1 (Homo sapiens, UniProt Q08345); assay: KINOMEscan competition binding, DDR1; settings: 10 µM compound
T1 construct: DNA label for qPCR read-out (T7 phage fusion or DNA tag); purchased Eurofins DiscoverX Corporation; host or cells: T7 phage in E. coli (BL21-derived) or HEK-293
Procedure: The KINOMEscan screening platform (Eurofins DiscoverX Corporation) was performed using active site-directed competition binding assay to quantitatively measure interactions between BK40143 and BK40197 and more than 450 human kinases and disease relevant mutant variants. […] Screening “hits” are identified by measuring the amount of kinase captured in test (BK40143 and BK40197) versus control samples by using a quantitative and ultra-sensitive qRT-PCR method that detects the associated DNA label. BK40143 and BK40197 were screened at 10 µM concentration, and results for primary screen binding interactions were reported as “% Ctrl” (POC), where lower numbers indicate stronger hits and calculated as follows: [test compound signal−positive control signal/negative control signal−positive control signal]×100
negative control = DMSO (100% Ctrl)
positive control = control compound (0% Ctrl)
Based on screening data from of profiled compounds, a proportional relationship between primary screening results and corresponding compound/target affinities can be described as binding constants (Kd values) for the indicated ranges of POC values with tighter binding (higher affinity) interactions associated with lower POC values and weaker binding (lower affinity) associated with higher POC values. Briefly, kinase-tagged T7 phage strains were grown in parallel in 24-well blocks in an E. coli host derived from the BL21 strain. E. coli were grown to log-phase and infected with T7 phage from a frozen stock (multiplicity of infection = 0.4) and incubated with shaking at 32°C until lysis (90–150 min). The lysates were centrifuged (6,000g) and filtered (0.2 μm) to remove cell debris. The remaining kinases were produced in HEK-293 cells and subsequently tagged with DNA for qRT-PCR detection. Streptavidin-coated magnetic beads were treated with biotinylated small molecule ligands for 30 min at RT to generate affinity resins for kinase assays. The liganded beads were blocked with excess biotin and washed with blocking buffer (1% BSA, 0.05% Tween 20, 1 mM DTT; SeaBlock [Pierce]) to remove unbound ligand and to reduce non-specific phage binding. Binding reactions were assembled by combining kinases, liganded affinity beads, and test compounds in 1x binding buffer (20% 0.17x PBS, 0.05% Tween 20, 6 mM DTT; SeaBlock). Test compounds were prepared as 100x stocks in 100% DMSO and directly diluted into the assay. All reactions were performed in polypropylene 384-well plates in a final volume of 0.02 ml. The assay plates were incubated at RT with shaking for 1 h and the affinity beads were washed with wash buffer (1x PBS, 0.05% Tween 20). […] The kinase concentration in the eluates was measured by qRT-PCR.

mice = assay: Elevated plus maze, source data sheets EPM (mouse line not given); assay type: in vivo; settings: for EPM Trial 1 Closed Entries / EPM Trial 1 Open Entries / EPM Trial 2 Closed Entries / EPM Trial 2 Open Entries / EPM Trial 2 Time Closed / EPM Trial 1 Time Closed / EPM Trial 1 Time Open / EPM Trial 2 Time Open / EPM Totals Closed Entries / EPM Totals Open Entries / EPM Totals Time Closed / EPM Totals Time Open: individual mice; for EPM Trial 2 Time Closed / EPM Totals Time Closed / EPM Totals Time Open / Time Open: in s (unit assumed); for EPM Trial 1 Time Closed / EPM Trial 1 Time Open / EPM Trial 2 Time Open / Time Closed / Time Closed AVG / Time Open AVG: in s; for EPM Totals Closed Entries / EPM Totals Open Entries / EPM Totals Time Closed / EPM Totals Time Open: sum of trials 1 and 2; for Closed Entries AVG / Open Entries AVG / Time Closed AVG / Time Open AVG: group average
Procedure: The elevated plus maze was performed using a standard set up, with two enclosed arms and two open arms. Mice were placed at the intersection of the open and closed arms and allowed to freely explore for 5 min, two times. Time spent in the open and closed arms and number of entries into the open and closed arms were recorded.

[1] = 2.5mg/kg, listed as 143, female mice
[2] = 2.5mg/kg, listed as 143, male mice
[3] = 5.0mg/kg, listed as 143, female mice
[4] = 5.0mg/kg, listed as 143, male mice
[5] = Totals (Trial 1 + Trial 2), individual animals, listed as 143
[6] = Trial 1, individual animals, listed as 143
[7] = Trial 2, individual animals, listed as 143

T1 sequence (Q08345 19-913): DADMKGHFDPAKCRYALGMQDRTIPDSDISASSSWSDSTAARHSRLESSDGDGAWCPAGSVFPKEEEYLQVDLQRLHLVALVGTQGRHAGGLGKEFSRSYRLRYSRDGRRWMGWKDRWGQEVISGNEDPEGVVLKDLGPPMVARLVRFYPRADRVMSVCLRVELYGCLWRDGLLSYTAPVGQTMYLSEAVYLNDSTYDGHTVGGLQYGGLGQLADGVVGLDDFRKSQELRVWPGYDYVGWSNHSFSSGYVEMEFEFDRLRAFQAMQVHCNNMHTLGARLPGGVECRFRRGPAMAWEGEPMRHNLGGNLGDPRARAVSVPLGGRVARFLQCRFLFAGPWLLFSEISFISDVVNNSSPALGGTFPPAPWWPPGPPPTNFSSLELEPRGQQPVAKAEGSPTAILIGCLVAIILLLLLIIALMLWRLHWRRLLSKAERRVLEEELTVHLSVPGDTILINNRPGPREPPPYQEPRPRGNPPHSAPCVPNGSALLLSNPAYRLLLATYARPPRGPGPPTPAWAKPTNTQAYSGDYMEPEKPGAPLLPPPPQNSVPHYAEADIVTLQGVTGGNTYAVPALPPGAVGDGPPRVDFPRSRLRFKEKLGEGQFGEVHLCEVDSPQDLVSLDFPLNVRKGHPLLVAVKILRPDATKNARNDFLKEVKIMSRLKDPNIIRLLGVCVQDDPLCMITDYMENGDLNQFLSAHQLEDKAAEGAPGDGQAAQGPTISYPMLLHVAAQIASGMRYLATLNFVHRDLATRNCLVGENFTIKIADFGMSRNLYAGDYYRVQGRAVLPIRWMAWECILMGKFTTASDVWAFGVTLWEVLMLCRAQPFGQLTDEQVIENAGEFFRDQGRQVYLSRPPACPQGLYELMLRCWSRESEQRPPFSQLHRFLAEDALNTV

## Cc1cccc(-c2cc3nccc(Nc4ccccc4)c3s2)c1 [BK40143]
pTau
  pTau (396) concentration in brain lysate (ELISA): significantly reduced Aβ and pTau (396) concentrations
DDR1
  inhibition at 10 µM: 69%
DDR1; lower = stronger binding, read-out: DDR1 %Ctrl @ 10000nM
  remaining binding at 10 µM: 31%
mice; [1]
  EPM Trial 1 Closed Entries: 7 and 2 and 1 and 3 and 5
  EPM Trial 1 Open Entries: 6 and 2 and 1 and 5 and 3
  EPM Trial 2 Closed Entries: 2 and 8 and 1 and 5
  EPM Trial 2 Open Entries: 1 and 6 and 0 and 4
  EPM Trial 2 Time Closed: 296 and 240 and 300 and 257 and 277
  EPM Trial 1 Time Closed: 280 and 287 and 293 and 268 and 258 and 222
  EPM Trial 1 Time Open: 20 and 13 and 7 and 32 and 42 and 78
  EPM Trial 2 Time Open: 4 and 60 and 0 and 43 and 23
  EPM Totals Closed Entries: 9 and 10 and 2 and 3 and 8 and 11
  EPM Totals Open Entries: 7 and 8 and 1 and 5 and 10
  EPM Totals Time Closed: 576 and 527 and 593 and 568 and 515 and 499
  EPM Totals Time Open: 24 and 73 and 7 and 32 and 85 and 101
mice; [2]
  EPM Trial 2 Time Closed: 251
  EPM Trial 1 Time Closed: 255
  EPM Trial 1 Time Open: 45
  EPM Trial 2 Time Open: 49
  EPM Trial 1 Closed Entries: 10
  EPM Trial 1 Open Entries: 10
  EPM Trial 2 Closed Entries: 6
  EPM Trial 2 Open Entries: 8
  EPM Totals Time Closed: 506
  EPM Totals Time Open: 94
  EPM Totals Closed Entries: 16
  EPM Totals Open Entries: 18
mice; [3]
  EPM Trial 1 Closed Entries: 2 and 3 and 5 and 4
  EPM Trial 1 Open Entries: 1 and 5 and 4
  EPM Trial 2 Closed Entries: 1 and 6 and 13
  EPM Trial 2 Open Entries: 0 and 6 and 1 and 7
  EPM Trial 2 Time Closed: 300 and 219 and 298 and 244
  EPM Trial 1 Time Closed: 297 and 266 and 284 and 290 and 268 and 259
  EPM Trial 1 Time Open: 3 and 34 and 16 and 10 and 32 and 41
  EPM Trial 2 Time Open: 0 and 81 and 2 and 56
  EPM Totals Closed Entries: 3 and 9 and 6 and 17
  EPM Totals Open Entries: 1 and 11 and 4 and 5
  EPM Totals Time Closed: 597 and 485 and 584 and 590 and 566 and 503
  EPM Totals Time Open: 3 and 115 and 16 and 10 and 34 and 97
mice; [4]
  EPM Trial 2 Time Closed: 237 and 280 and 238
  EPM Trial 1 Time Closed: 300 and 261 and 228 and 166
  EPM Trial 1 Time Open: 0 and 39 and 72 and 134
  EPM Trial 2 Time Open: 63 and 20 and 62
  EPM Trial 1 Closed Entries: 1 and 6 and 9
  EPM Trial 1 Open Entries: 0 and 6 and 9
  EPM Trial 2 Closed Entries: 7 and 8
  EPM Trial 2 Open Entries: 3 and 8
  EPM Totals Time Closed: 600 and 498 and 508 and 404
  EPM Totals Time Open: 0 and 102 and 92 and 196
  EPM Totals Closed Entries: 2 and 11 and 13
  EPM Totals Open Entries: 0 and 9 and 17
mice; [5]
  Closed Entries: 15 and 5 and 8 and 6 and 9 and 14 and 11
  Open Entries: 10 and 7 and 8 and 6 and 12 and 17
  Time Closed: 435 and 498 and 481 and 538 and 465 and 421 and 544 and 262 and 497 and 529
  Time Open: 165 and 102 and 119 and 62 and 135 and 179 and 56 and 338 and 103 and 71
mice; Totals
  Closed Entries AVG: 11.2
  Open Entries AVG: 9.1
  Time Closed AVG: 467
  Time Open AVG: 133
mice; Trial 1
  Closed Entries AVG: 6.6
  Open Entries AVG: 5.8
  Time Closed AVG: 206.8
  Time Open AVG: 93.2
mice; [6]
  Closed Entries: 9 and 2 and 6 and 3 and 5 and 8 and 10 and 7
  Open Entries: 7 and 3 and 6 and 5 and 4 and 9
  Time Closed: 160 and 258 and 206 and 186 and 167 and 254 and 112 and 227 and 240
  Time Open: 140 and 42 and 94 and 114 and 133 and 46 and 188 and 73 and 60
mice; Trial 2
  Closed Entries AVG: 4.6
  Open Entries AVG: 3.3
  Time Closed AVG: 260.2
  Time Open AVG: 39.8
mice; [7]
  Closed Entries: 6 and 3 and 2 and 4 and 7
  Open Entries: 3 and 4 and 2 and 5 and 1 and 8
  Time Closed: 275 and 240 and 280 and 279 and 254 and 290 and 150 and 270 and 289
  Time Open: 25 and 60 and 20 and 21 and 46 and 10 and 150 and 30 and 11
mice; total Time Open per total Open Entries, individual animals, listed as 143
  Time/Entry: 16.5 and 14.5714 and 14.875 and 8.857 and 22.5 and 14.9167 and 9.333 and 19.8824 and 10.3 and 8.875
